How the values were obtained:
HiBit-BRM fusion protein = biological target: T1, HiBit-BRM fusion protein (Homo sapiens, UniProt P51531); experiment: HiBiT-BRM cell-based degradation assay (Nano-Glo HiBiT Lytic Detection, 24 h); settings: stable HeLa cell line expressing HiBiT-BRM; for DC50: read-out: BRM HiBit Degradation IC50
T1 construct: expressed in transfected cells
Method: (§1) Procedure: A stable HeLa cell line expressing HiBiT-BRM was generated. On day 0, 5000 cells were seeded in 40 μL of media into each well of 384-well cell culture plates. On day 1, cells were treated with 120 nL DMSO or 120 nL of 3-fold serially DMSO-diluted compounds (10 points in duplicate with 30 μM as final top dose). Subsequently plates were incubated for 24 h in a standard tissue culture incubator and equilibrated at room temperature for 15 minutes. Nano-Glo HiBiT Lytic Detection System (Promega N3050) reagent was freshly prepared and 20 ul was added to each well. Upon addition of this LgBit-containing reagent, the HiBiT and LgBiT proteins associate to form the luminescent NanoBiT Iuciferase. The plates were shaken for 10 minutes at room temperature and the bioluminescence read using an EnVision plate reader (PerkinElmer).
(§2) The degradation % was calculated using the following formula: % degradation=100%-100%×(LumSample−LumLC)/(LumHC−LumLC). DMSO treated cells are employed as High Control (HC) and 2 μM of a known BRM/BRG1 degrader standard treated cells are employed as Low Control (LC).

[1] = biological target: T2, HiBit-BRG1 fusion protein (Homo sapiens, UniProt P51532); experiment: HiBiT-BRG1 cell-based degradation assay (Nano-Glo HiBiT Lytic Detection, 24 h); settings: stable HeLa cell line expressing HiBit-BRG1 and LgBit; for Dmax: read-out: BRG1 HiBit Degradation Maximum (%); for DC50: read-out: BRMG1 HiBit Degradation IC50
T2 construct: expressed in transfected cells
T2 sequence (P51532 whole entry, the tested form may be a part): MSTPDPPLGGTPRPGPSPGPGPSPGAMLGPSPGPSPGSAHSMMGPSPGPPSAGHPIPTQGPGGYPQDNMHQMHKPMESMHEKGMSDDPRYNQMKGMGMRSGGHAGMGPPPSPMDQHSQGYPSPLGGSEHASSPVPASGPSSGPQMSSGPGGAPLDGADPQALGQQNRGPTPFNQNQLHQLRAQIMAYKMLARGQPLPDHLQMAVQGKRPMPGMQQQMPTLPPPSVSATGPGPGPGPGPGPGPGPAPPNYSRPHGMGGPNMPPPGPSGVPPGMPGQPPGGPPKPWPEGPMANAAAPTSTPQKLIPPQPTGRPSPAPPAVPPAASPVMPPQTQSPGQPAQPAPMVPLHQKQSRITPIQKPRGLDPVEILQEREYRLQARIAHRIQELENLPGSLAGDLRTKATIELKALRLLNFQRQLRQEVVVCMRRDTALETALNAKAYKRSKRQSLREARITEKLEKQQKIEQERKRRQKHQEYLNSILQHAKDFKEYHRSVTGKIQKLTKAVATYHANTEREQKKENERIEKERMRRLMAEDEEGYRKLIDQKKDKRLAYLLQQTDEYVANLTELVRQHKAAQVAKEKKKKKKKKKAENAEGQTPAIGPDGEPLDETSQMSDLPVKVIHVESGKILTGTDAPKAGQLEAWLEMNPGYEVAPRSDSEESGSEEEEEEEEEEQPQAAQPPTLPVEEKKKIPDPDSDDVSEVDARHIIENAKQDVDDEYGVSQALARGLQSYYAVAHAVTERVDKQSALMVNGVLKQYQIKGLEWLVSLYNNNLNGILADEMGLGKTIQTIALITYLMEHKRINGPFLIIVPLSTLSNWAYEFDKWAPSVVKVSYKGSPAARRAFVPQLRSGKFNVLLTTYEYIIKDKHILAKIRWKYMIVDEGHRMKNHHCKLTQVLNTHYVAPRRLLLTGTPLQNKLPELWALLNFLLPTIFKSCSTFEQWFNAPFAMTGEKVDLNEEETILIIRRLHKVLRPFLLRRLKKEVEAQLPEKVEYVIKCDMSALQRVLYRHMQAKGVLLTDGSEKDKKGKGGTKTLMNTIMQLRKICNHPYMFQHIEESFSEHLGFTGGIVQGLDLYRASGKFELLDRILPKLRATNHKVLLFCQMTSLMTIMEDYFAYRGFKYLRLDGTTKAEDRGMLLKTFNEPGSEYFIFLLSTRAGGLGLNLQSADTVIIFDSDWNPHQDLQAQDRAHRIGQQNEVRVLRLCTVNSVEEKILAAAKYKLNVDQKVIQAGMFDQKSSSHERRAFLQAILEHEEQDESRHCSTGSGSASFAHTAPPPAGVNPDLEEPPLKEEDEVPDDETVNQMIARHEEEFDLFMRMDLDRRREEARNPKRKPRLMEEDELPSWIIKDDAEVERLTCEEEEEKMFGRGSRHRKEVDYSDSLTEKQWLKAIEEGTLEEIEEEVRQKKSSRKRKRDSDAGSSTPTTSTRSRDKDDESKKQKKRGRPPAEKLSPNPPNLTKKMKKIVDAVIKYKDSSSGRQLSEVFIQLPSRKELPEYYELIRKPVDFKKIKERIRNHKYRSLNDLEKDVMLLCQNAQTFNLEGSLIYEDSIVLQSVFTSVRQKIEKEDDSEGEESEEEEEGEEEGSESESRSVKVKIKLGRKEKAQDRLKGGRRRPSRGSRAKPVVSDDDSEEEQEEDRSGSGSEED
Method: as §1
For measurement of BRG1 degradation, a stable HeLa cell line expressing HiBit-BRG1 and LgBit was generated. The same protocol as above was then followed.
as §2

T1 sequence (P51531 whole entry, the tested form may be a part): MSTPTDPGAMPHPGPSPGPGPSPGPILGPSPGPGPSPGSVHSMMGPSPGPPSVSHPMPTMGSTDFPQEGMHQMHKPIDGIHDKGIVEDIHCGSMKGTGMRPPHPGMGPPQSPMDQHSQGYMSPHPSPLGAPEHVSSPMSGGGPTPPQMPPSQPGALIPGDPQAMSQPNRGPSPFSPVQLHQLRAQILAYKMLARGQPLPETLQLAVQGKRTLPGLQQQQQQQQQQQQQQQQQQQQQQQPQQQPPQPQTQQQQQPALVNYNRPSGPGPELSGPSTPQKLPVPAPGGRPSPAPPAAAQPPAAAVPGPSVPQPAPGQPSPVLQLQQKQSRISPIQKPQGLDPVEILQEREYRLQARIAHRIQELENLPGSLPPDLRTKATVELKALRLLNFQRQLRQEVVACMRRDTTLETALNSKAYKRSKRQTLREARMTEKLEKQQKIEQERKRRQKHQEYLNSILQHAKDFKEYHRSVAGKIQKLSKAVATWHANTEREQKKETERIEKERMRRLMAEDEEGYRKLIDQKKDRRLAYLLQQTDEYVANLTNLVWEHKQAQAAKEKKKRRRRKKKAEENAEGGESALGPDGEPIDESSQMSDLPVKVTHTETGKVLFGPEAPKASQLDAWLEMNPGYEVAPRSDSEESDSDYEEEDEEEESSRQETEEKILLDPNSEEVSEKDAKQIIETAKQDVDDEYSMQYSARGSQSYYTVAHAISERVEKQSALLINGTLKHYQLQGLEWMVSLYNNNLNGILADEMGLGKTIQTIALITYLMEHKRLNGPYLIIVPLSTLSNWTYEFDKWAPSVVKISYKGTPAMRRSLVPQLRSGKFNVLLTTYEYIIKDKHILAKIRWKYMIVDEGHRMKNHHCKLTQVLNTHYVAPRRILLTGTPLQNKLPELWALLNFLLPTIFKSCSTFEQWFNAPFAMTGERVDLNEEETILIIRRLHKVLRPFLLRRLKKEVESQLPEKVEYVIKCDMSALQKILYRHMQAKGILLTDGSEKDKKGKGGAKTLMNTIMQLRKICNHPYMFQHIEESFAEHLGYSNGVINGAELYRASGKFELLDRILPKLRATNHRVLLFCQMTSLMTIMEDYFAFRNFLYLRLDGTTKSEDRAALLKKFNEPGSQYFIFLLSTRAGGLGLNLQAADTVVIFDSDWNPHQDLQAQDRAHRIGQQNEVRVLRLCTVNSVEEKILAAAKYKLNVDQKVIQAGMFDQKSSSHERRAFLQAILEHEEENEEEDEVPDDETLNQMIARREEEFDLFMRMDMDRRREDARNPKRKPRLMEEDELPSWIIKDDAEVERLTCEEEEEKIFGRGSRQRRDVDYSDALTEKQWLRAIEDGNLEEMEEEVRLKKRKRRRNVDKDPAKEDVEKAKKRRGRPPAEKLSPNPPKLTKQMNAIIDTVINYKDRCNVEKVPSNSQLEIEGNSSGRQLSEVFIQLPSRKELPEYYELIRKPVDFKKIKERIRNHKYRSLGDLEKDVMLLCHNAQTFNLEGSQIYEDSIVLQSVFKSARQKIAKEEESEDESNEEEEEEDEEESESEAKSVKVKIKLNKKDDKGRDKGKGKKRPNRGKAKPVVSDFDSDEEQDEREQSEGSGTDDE

Structure (SMILES) | BRM HiBit Degradation Maximum (%) (HiBit-BRM fusion protein) | DC50 (HiBit-BRM fusion protein) [nM] | Dmax [1] [%] | DC50 [1] [nM]
Cc1ncsc1-c1ccc([C@H](C)NC(=O)[C@@H]2C[C@@H](O)CN2C(=O)[C@@H](c2cc(-c3cnc(N4CCC(c5sc6nnc(-c7ccccc7O)cc6c5C)[C@@H](C)C4)nc3)no2)C(C)C)cc1 (stereo in doubt) [Compound 35, (2S,4R)-4-hydroxy-1-((R)-2-(3-(2-((3R,4R)-4-(3-(2-hydroxyphenyl)-5-methylthieno[2,3-c]pyridazin-6-yl)-3-methylpiperidin-1-yl)pyrimidin-5-yl)isoxazol-5-yl)-3-methylbutanoyl)-N-((S)-1-(4-(4-methylthiazol-5-yl)phenyl)ethyl)pyrrolidine-2-carboxamide] | A (“A” indicates maximum degradation ≥75%) | < 10 | < 50 | > 1000
Cc1ncsc1-c1ccc([C@H](C)NC(=O)[C@@H]2C[C@@H](O)CN2C(=O)[C@@H](c2cc(-c3ccnc(N4CC[C@@H](c5cc6nnc(-c7ccccc7O)cc6s5)C4)n3)no2)C(C)C)cc1 [Compound 83, (2S,4R)-4-hydroxy-1-((R)-2-(3-(2-((R)-3-(3-(2-hydroxyphenyl)thieno[3,2-c]pyridazin-6-yl)pyrrolidin-1-yl)pyrimidin-4-yl)isoxazol-5-yl)-3-methylbutanoyl)-N-((S)-1-(4-(4-methylthiazol-5-yl)phenyl)ethyl)pyrrolidine-2-carboxamide] | A (“A” indicates maximum degradation ≥75%) | > 10 | < 50 | –
Cc1ncsc1-c1ccc([C@H](C)NC(=O)[C@@H]2C[C@@H](O)CN2C(=O)[C@@H](c2cc(-c3ccc(N4CCC(c5sc6nnc(-c7ccccc7O)cc6c5C)CC4)nn3)no2)C(C)C)cc1 [Compound 57, (2S,4R)-4-hydroxy-1-((R)-2-(3-(6-(4-(3-(2-hydroxyphenyl)-5-methylthieno[2,3-c]pyridazin-6-yl)piperidin-1-yl)pyridazin-3-yl)isoxazol-5-yl)-3-methylbutanoyl)-N-((S)-1-(4-(4-methylthiazol-5-yl)phenyl)ethyl)pyrrolidine-2-carboxamide] | A (“A” indicates maximum degradation ≥75%) | < 10 | < 50 | > 1000
Cc1cc(-c2cc([C@H](C(=O)N3C[C@H](O)C[C@H]3C(=O)N[C@@H](C)c3ccc(-c4scnc4C)cc3)C(C)C)on2)cnc1N1CCC(c2sc3nnc(-c4ccccc4O)cc3c2C)CC1 [Compound 43, (2S,4R)-4-hydroxy-1-((R)-2-(3-(6-(4-(3-(2-hydroxyphenyl)-5-methylthieno[2,3-c]pyridazin-6-yl)piperidin-1-yl)-5-methylpyridin-3-yl)isoxazol-5-yl)-3-methylbutanoyl)-N-((S)-1-(4-(4-methylthiazol-5-yl)phenyl)ethyl)pyrrolidine-2-carboxamide] | A (“A” indicates maximum degradation ≥75%) | < 10 | < 50 | > 1000
Cc1ncsc1-c1ccc([C@H](C)NC(=O)[C@@H]2C[C@@H](O)CN2C(=O)[C@@H](c2cc(-c3cnc(N4CCN(c5sc6nnc(-c7ccccc7O)cc6c5C)CC4)nc3)no2)C(C)C)cc1 [Compound 53, (2S,4R)-4-hydroxy-1-((R)-2-(3-(2-(4-(3-(2-hydroxyphenyl)-5-methylthieno[2,3-c]pyridazin-6-yl)piperazin-1-yl)pyrimidin-5-yl)isoxazol-5-yl)-3-methylbutanoyl)-N-((S)-1-(4-(4-methylthiazol-5-yl)phenyl)ethyl)pyrrolidine-2-carboxamide] | A (“A” indicates maximum degradation ≥75%) | < 10 | > 75 | > 10
Cc1ncsc1-c1ccc([C@H](C)NC(=O)[C@@H]2C[C@@H](O)CN2C(=O)[C@@H](c2cc(-c3cnc(N4CCC(c5sc6nnc(-c7ccccc7O)cc6c5C)CC4)nc3)no2)C(C)C)cc1 (single isomer, unassigned) [Compound 66] | A (“A” indicates maximum degradation ≥75%) | < 10 | < 50 | > 1000
Cc1ncsc1-c1ccc([C@H](C)NC(=O)[C@@H]2C[C@@H](O)CN2C(=O)[C@@H](c2cc(N3CC4(CCC(c5cc6cc(-c7ccccc7O)nnc6s5)CC4)C3)no2)C(C)C)cc1 [Compound 89, (2S,4R)-4-hydroxy-1-((R)-2-(3-(7-(3-(2-hydroxyphenyl)thieno[2,3-c]pyridazin-6-yl)-2-azaspiro[3.5]nonan-2-yl)isoxazol-5-yl)-3-methylbutanoyl)-N-((S)-1-(4-(4-methylthiazol-5-yl)phenyl)ethyl)pyrrolidine-2-carboxamide] | A (“A” indicates maximum degradation ≥75%) | < 10 | > 75 | > 10
Cc1ncsc1-c1ccc([C@H](C)NC(=O)[C@@H]2C[C@@H](O)CN2C(=O)[C@@H](c2cc(N3CC4(CCC(c5sc6nnc(-c7ccccc7O)cc6c5C)CC4)C3)no2)C(C)C)cc1 [Compound 88, (2S,4R)-4-hydroxy-1-((R)-2-(3-(7-(3-(2-hydroxyphenyl)-5-methylthieno[2,3-c]pyridazin-6-yl)-2-azaspiro[3.5]nonan-2-yl)isoxazol-5-yl)-3-methylbutanoyl)-N-((S)-1-(4-(4-methylthiazol-5-yl)phenyl)ethyl)pyrrolidine-2-carboxamide] | A (“A” indicates maximum degradation ≥75%) | < 10 | > 75 | > 10
Cc1ncsc1-c1ccc([C@H](C)NC(=O)[C@@H]2C[C@@H](O)CN2C(=O)[C@@H](c2cc(-c3cnc(CN4CCC(c5cc6cc(-c7ccccc7O)nnc6s5)CC4)nc3)no2)C(C)C)cc1 (single isomer, unassigned) [Compound 99] | B (“B” indicates maximum degradation ≥50%) | > 10 | < 50 | –
Cc1ncsc1-c1ccc([C@H](C)NC(=O)[C@@H]2C[C@@H](O)CN2C(=O)C(c2cc(Oc3nccc(N4CCC(c5sc6nnc(-c7ccccc7O)cc6c5C)CC4)n3)no2)C(C)C)cc1 (single isomer, unassigned) [Compound 61, (2S,4R)-4-hydroxy-1-[(2R*)-2-{3-[(4-{4-[3-(2-hydroxyphenyl)-5-methylthieno[2,3-c]pyridazin-6-yl]piperidin-1-yl}pyrimidin-2-yl)oxy]-1,2-oxazol-5-yl}-3-methylbutanoyl]-N-[(1S)-1-[4-(4-methyl-1,3-thiazol-5-yl)phenyl]ethyl]pyrrolidine-2-carboxamide] | C (“C” indicates maximum degradation <50%) | > 1000 | < 50 | > 1000
Cc1ncsc1-c1ccc([C@H](C)NC(=O)[C@@H]2C[C@@H](O)CN2C(=O)[C@@H](c2cc(-c3cnc(N4CC[C@@H](c5sc6nnc(-c7ccccc7O)cc6c5C)C[C@H]4C)nc3)no2)C(C)C)cc1 [Compound 30, (2S,4R)-4-hydroxy-1-((R)-2-(3-(2-((2R,4R)-4-(3-(2-hydroxyphenyl)-5-methylthieno[2,3-c]pyridazin-6-yl)-2-methylpiperidin-1-yl)pyrimidin-5-yl)isoxazol-5-yl)-3-methylbutanoyl)-N-((S)-1-(4-(4-methylthiazol-5-yl)phenyl)ethyl)pyrrolidine-2-carboxamide] | A (“A” indicates maximum degradation ≥75%) | < 10 | < 50 | > 1000
Cc1ncsc1-c1ccc([C@H](C)NC(=O)[C@@H]2C[C@@H](O)CN2C(=O)[C@@H](c2cc(-c3cnc(N4CC[C@H](c5sc6nnc(-c7ccccc7O)cc6c5C)C[C@@H]4C)nc3)no2)C(C)C)cc1 [Compound 27, (2S,4R)-4-hydroxy-1-((R)-2-(3-(2-((2S,4S)-4-(3-(2-hydroxyphenyl)-5-methylthieno[2,3-c]pyridazin-6-yl)-2-methylpiperidin-1-yl)pyrimidin-5-yl)isoxazol-5-yl)-3-methylbutanoyl)-N-((S)-1-(4-(4-methylthiazol-5-yl)phenyl)ethyl)pyrrolidine-2-carboxamide] | A (“A” indicates maximum degradation ≥75%) | < 10 | < 50 | > 1000
Cc1ncsc1-c1ccc([C@H](C)NC(=O)[C@@H]2C[C@@H](O)CN2C(=O)[C@@H](c2cc(-c3cnc(N4CC[C@H](c5sc6nnc(-c7ccccc7O)cc6c5C5CC5)C4)nc3)no2)C(C)C)cc1 [Compound 76, (2S,4R)-1-((R)-2-(3-(2-((S)-3-(5-cyclopropyl-3-(2-hydroxyphenyl)thieno[2,3-c]pyridazin-6-yl)pyrrolidin-1-yl)pyrimidin-5-yl)isoxazol-5-yl)-3-methylbutanoyl)-4-hydroxy-N-((S)-1-(4-(4-methylthiazol-5-yl)phenyl)ethyl)pyrrolidine-2-carboxamide] | A (“A” indicates maximum degradation ≥75%) | < 10 | < 50 | –
